Data on 19 compounds can be found in patent publication US8574563B2 (Bristol-Myers Squibb Company, priority 2006, dated 2013).

What is called EC50 is the concentration giving half of the maximal effect.

The subject of the first assay is HCV 1b-377-neo replicon cells. Briefly: HCV replicon assay, HCV 1b-377-neo replicon cells (1b FRET). It is filed as cell-based, Hepatitis C virus genotype 1b. The conditions noted are these: HCV 1b-377-neo replicon cells; HCV 1b genotype; read-out: EC50 range against HCV 1b (Table 2, Range). The gist of the method: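 Compounds tested in HCV genotype 1b-377-neo replicon cells with a FRET read-out. Cells resistant to a reference NS5A inhibitor through a Y2065H NS5A mutation were run alongside wild-type cells.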
(Replicon systems follow genome replication, usually without infectious particles.)
For `COC(=O)N[C@@H](C(=O)N1CCC[C@H]1c1ncc(-c2ccc(-c3ccc(-c4cnc([C@@H]5CCCN5C(=O)[C@H]5CCN(Cc6ccccc6)C5)[nH]4)cc3)cc2)[nH]1)c1ccccc1` [Example 84-28], the EC50 fell in the range of 0.001 to 0.999 nM.
Take `COC(=O)NC(C(=O)N1CCCC1c1ncc(-c2ccc(-c3ccc(-c4cnc(C5CCCN5C(=O)C(c5csc6ccccc56)N(C)C)[nH]4)cc3)cc2)[nH]1)c1ccccc1` [Example 84-50, methyl ((1R)-2-((2S)-2-(5-(4′-(2-((2S)-1-(1-benzothiophen-3-yl(dimethylamino)acetyl)-2-pyrrolidinyl)-1H-imidazol-5-yl)-4-biphenylyl)-1H-imidazol-2-yl)-1-pyrrolidinyl)-2-oxo-1-phenylethyl)carbamate]: the EC50 is 0.001 to 0.999 nM.

The same assay, now with this note: Hepatitis C virus, HCV 1b-377-neo replicon cells; HCV 1b genotype; read-out: EC50 range against HCV 1b (Table 2, Range).
Consider `COC(=O)N[C@@H](C(=O)N1CCC[C@H]1c1ncc(-c2ccc(-c3ccc(-c4cnc([C@@H]5CCCN5C(=O)COc5ccccc5OC)[nH]4)cc3)cc2)[nH]1)c1ccccc1` [Example 84-26, methyl ((1R)-2-((2S)-2-(5-(4′-(2-((2S)-1-((2-methoxyphenoxy)acetyl)-2-pyrrolidinyl)-1H-imidazol-5-yl)-4-biphenylyl)-1H-imidazol-2-yl)-1-pyrrolidinyl)-2-oxo-1-phenylethyl)carbamate], for which the EC50 was in the range of 0.001 to 0.999 nM.
Regarding `COC(=O)N[C@@H](C(=O)N1CCC[C@H]1c1ncc(-c2ccc(-c3ccc(-c4cnc([C@@H]5CCCN5C(=O)C5CN(C(=O)OC(C)(C)C)C5)[nH]4)cc3)cc2)[nH]1)c1ccccc1` [Example 84-27, tert-butyl 3-(((2S)-2-(5-(4′-(2-((2S)-1-((2R)-2-((methoxycarbonyl)amino)-2-phenylacetyl)-2-pyrrolidinyl)-1H-imidazol-5-yl)-4-biphenylyl)-1H-imidazol-2-yl)-1-pyrrolidinyl)carbonyl)-1-azetidinecarboxylate], the EC50 was 0.001 to 0.999 nM.
The same measure, in the same setting: with `COC(=O)N[C@@H](C(=O)N1CCC[C@H]1c1ncc(-c2ccc(-c3ccc(-c4cnc([C@@H]5CCCN5C(=O)C5(C(F)(F)F)CC5)[nH]4)cc3)cc2)[nH]1)c1ccccc1` [Example 84-32, methyl ((1R)-2-oxo-1-phenyl-2-((2S)-2-(5-(4′-(2-((2S)-1-((1-(trifluoromethyl)cyclopropyl)carbonyl)-2-pyrrolidinyl)-1H-imidazol-5-yl)-4-biphenylyl)-1H-imidazol-2-yl)-1-pyrrolidinyl)ethyl)carbamate] the figure was 0.001 to 0.999 nM; with `COC(=O)N[C@@H](C(=O)N1CCC[C@H]1c1ncc(-c2ccc(-c3ccc(-c4cnc([C@@H]5CCCN5C(=O)c5ccc(N(C)C)cc5)[nH]4)cc3)cc2)[nH]1)c1ccccc1` [Example 84-33, methyl ((1R)-2-((2S)-2-(5-(4′-(2-((2S)-1-(4-(dimethylamino)benzoyl)-2-pyrrolidinyl)-1H-imidazol-5-yl)-4-biphenylyl)-1H-imidazol-2-yl)-1-pyrrolidinyl)-2-oxo-1-phenylethyl)carbamate], 0.001 to 0.999 nM; with `COC(=O)N[C@@H](C(=O)N1CCC[C@H]1c1ncc(-c2ccc(-c3ccc(-c4cnc([C@@H]5CCCN5C(=O)[C@H]5CC[C@@H](NC(=O)OC(C)(C)C)CC5)[nH]4)cc3)cc2)[nH]1)c1ccccc1` [Example 84-35, methyl ((1R)-2-((2S)-2-(5-(4′-(2-((2S)-1-((cis-4-((tert-butoxycarbonyl)amino)cyclohexyl)carbonyl)-2-pyrrolidinyl)-1H-imidazol-5-yl)-4-biphenylyl)-1H-imidazol-2-yl)-1-pyrrolidinyl)-2-oxo-1-phenylethyl)carbamate], 0.001 to 0.999 nM.
On the same count and under the same terms, then `COC(=O)N[C@@H](C(=O)N1CCC[C@H]1c1ncc(-c2ccc(-c3ccc(-c4cnc([C@@H]5CCCN5C(=O)C5CCN(C(=O)OC(C)(C)C)CC5)[nH]4)cc3)cc2)[nH]1)c1ccccc1` [Example 84-36, tert-butyl 4-(((2S)-2-(5-(4′-(2-((2S)-1-((2R)-2-((methoxycarbonyl)amino)-2-phenylacetyl)-2-pyrrolidinyl)-1H-imidazol-5-yl)-4-biphenylyl)-1H-imidazol-2-yl)-1-pyrrolidinyl)carbonyl)-1-piperidinecarboxylate], with 0.001 to 0.999 nM.
Take `COC(=O)N[C@@H](C(=O)N1CCC[C@H]1c1ncc(-c2ccc(-c3ccc(-c4cnc([C@@H]5CCCN5C(=O)C(c5ccccc5)c5ccccc5)[nH]4)cc3)cc2)[nH]1)c1ccccc1` [Example 84-38, methyl ((1R)-2-((2S)-2-(5-(4′-(2-((2S)-1-(diphenylacetyl)-2-pyrrolidinyl)-1H-imidazol-5-yl)-4-biphenylyl)-1H-imidazol-2-yl)-1-pyrrolidinyl)-2-oxo-1-phenylethyl)carbamate]: the EC50 lay in the range of 0.001 to 0.999 nM.
On the same count and under the same terms, then `COC(=O)N[C@@H](C(=O)N1CCC[C@H]1c1ncc(-c2ccc(-c3ccc(-c4cnc([C@@H]5CCCN5C(=O)CCC(C)=O)[nH]4)cc3)cc2)[nH]1)c1ccccc1` [Example 84-39, methyl ((1R)-2-oxo-2-((2S)-2-(5-(4′-(2-((2S)-1-(4-oxopentanoyl)-2-pyrrolidinyl)-1H-imidazol-5-yl)-4-biphenylyl)-1H-imidazol-2-yl)-1-pyrrolidinyl)-1-phenylethyl)carbamate], with 0.001 to 0.999 nM; and `COC(=O)N[C@@H](C(=O)N1CCC[C@H]1c1ncc(-c2ccc(-c3ccc(-c4cnc([C@@H]5CCCN5C(=O)c5ccccc5F)[nH]4)cc3)cc2)[nH]1)c1ccccc1` [Example 84-40, methyl ((1R)-2-((2S)-2-(5-(4′-(2-((2S)-1-(2-fluorobenzoyl)-2-pyrrolidinyl)-1H-imidazol-5-yl)-4-biphenylyl)-1H-imidazol-2-yl)-1-pyrrolidinyl)-2-oxo-1-phenylethyl)carbamate], with 0.001 to 0.999 nM; and `COC(=O)N[C@@H](C(=O)N1CCC[C@H]1c1ncc(-c2ccc(-c3ccc(-c4cnc([C@@H]5CCCN5C(=O)c5cscn5)[nH]4)cc3)cc2)[nH]1)c1ccccc1` [Example 84-44, methyl ((1R)-2-oxo-1-phenyl-2-((2S)-2-(5-(4′-(2-((2S)-1-(1,3-thiazol-4-ylcarbonyl)-2-pyrrolidinyl)-1H-imidazol-5-yl)-4-biphenylyl)-1H-imidazol-2-yl)-1-pyrrolidinyl)ethyl)carbamate], with 0.001 to 0.999 nM.
In the case of `COC(=O)N[C@@H](C(=O)N1CCC[C@H]1c1ncc(-c2ccc(-c3ccc(-c4cnc([C@@H]5CCCN5C(=O)C(c5cccs5)N(C)C)[nH]4)cc3)cc2)[nH]1)c1ccccc1` (stereo partly drawn) [Example 84-46, methyl ((1R)-2-((2S)-2-(5-(4′-(2-((2S)-1-((dimethylamino)(2-thienyl)acetyl)-2-pyrrolidinyl)-1H-imidazol-5-yl)-4-biphenylyl)-1H-imidazol-2-yl)-1-pyrrolidinyl)-2-oxo-1-phenylethyl)carbamate], the EC50 is 0.001 to 0.999 nM.
As for `COC(=O)N[C@@H](C(=O)N1CCC[C@H]1c1ncc(-c2ccc(-c3ccc(-c4cnc([C@@H]5CCCN5C(=O)C(c5ccsc5)N(C)C)[nH]4)cc3)cc2)[nH]1)c1ccccc1` (stereo partly drawn) [Example 84-47, methyl ((1R)-2-((2S)-2-(5-(4′-(2-((2S)-1-((dimethylamino)(3-thienyl)acetyl)-2-pyrrolidinyl)-1H-imidazol-5-yl)-4-biphenylyl)-1H-imidazol-2-yl)-1-pyrrolidinyl)-2-oxo-1-phenylethyl)carbamate], the EC50 was in the range of 0.001 to 0.999 nM.
Consider `COC(=O)N[C@@H](C(=O)N1CCC[C@H]1c1ncc(-c2ccc(-c3ccc(-c4cnc([C@@H]5CCCN5C(=O)C(c5csc(C)n5)N(C)C)[nH]4)cc3)cc2)[nH]1)c1ccccc1` (stereo partly drawn) [Example 84-48, methyl ((1R)-2-((2S)-2-(5-(4′-(2-((2S)-1-((dimethylamino)(2-methyl-1,3-thiazol-4-yl)acetyl)-2-pyrrolidinyl)-1H-imidazol-5-yl)-4-biphenylyl)-1H-imidazol-2-yl)-1-pyrrolidinyl)-2-oxo-1-phenylethyl)carbamate], for which the EC50 was 0.001 to 0.999 nM.
On the same count and under the same terms, with `COC(=O)N[C@@H](C(=O)N1CCC[C@H]1c1ncc(-c2ccc(-c3ccc(-c4cnc([C@@H]5CCCN5C(=O)C(c5noc6ccccc56)N(C)C)[nH]4)cc3)cc2)[nH]1)c1ccccc1` (stereo partly drawn) [Example 84-49, methyl ((1R)-2-((2S)-2-(5-(4′-(2-((2S)-1-(1,2-benzisoxazol-3-yl(dimethylamino)acetyl)-2-pyrrolidinyl)-1H-imidazol-5-yl)-4-biphenylyl)-1H-imidazol-2-yl)-1-pyrrolidinyl)-2-oxo-1-phenylethyl)carbamate] the figure was 0.001 to 0.999 nM.
Still for that read-out and setting: then `COC(=O)N[C@@H](C(=O)N1CCC[C@H]1c1ncc(-c2ccc(-c3ccc(-c4cnc([C@@H]5CCCN5C(=O)C(c5cccc6ccccc56)N(C)C)[nH]4)cc3)cc2)[nH]1)c1ccccc1` (stereo partly drawn) [Example 84-51, methyl ((1R)-2-((2S)-2-(5-(4′-(2-((2S)-1-((dimethylamino)(1-naphthyl)acetyl)-2-pyrrolidinyl)-1H-imidazol-5-yl)-4-biphenylyl)-1H-imidazol-2-yl)-1-pyrrolidinyl)-2-oxo-1-phenylethyl)carbamate], with 0.001 to 0.999 nM; and `COC(=O)N[C@@H](C(=O)N1CCC[C@H]1c1ncc(-c2ccc(-c3ccc(-c4cnc([C@@H]5CCCN5C(=O)C(c5cnc6ccccc6c5)N(C)C)[nH]4)cc3)cc2)[nH]1)c1ccccc1` (stereo partly drawn) [Example 84-52, methyl ((1R)-2-((2S)-2-(5-(4′-(2-((2S)-1-((dimethylamino)(3-quinolinyl)acetyl)-2-pyrrolidinyl)-1H-imidazol-5-yl)-4-biphenylyl)-1H-imidazol-2-yl)-1-pyrrolidinyl)-2-oxo-1-phenylethyl)carbamate], with 0.001 to 0.999 nM.
The same measure, in the same setting: with `COC(=O)N[C@@H](C(=O)N1CCC[C@H]1c1ncc(-c2ccc(-c3ccc(-c4cnc([C@@H]5CCCN5C(=O)C(c5ccc6sc(C)nc6c5)N(C)C)[nH]4)cc3)cc2)[nH]1)c1ccccc1` (stereo partly drawn) [Example 84-53, methyl ((1R)-2-((2S)-2-(5-(4′-(2-((2S)-1-((dimethylamino)(2-methyl-1,3-benzothiazol-5-yl)acetyl)-2-pyrrolidinyl)-1H-imidazol-5-yl)-4-biphenylyl)-1H-imidazol-2-yl)-1-pyrrolidinyl)-2-oxo-1-phenylethyl)carbamate] the figure was 0.001 to 0.999 nM.
